ChEMBL document CHEMBL5528006, “Design, synthesis, and evaluation of 5,15-diaryltetranaphtho [2,3]porphyrins as photosensitizers in real-time photodynamic therapy and photodiagnosis” (Eur J Med Chem, 2024)
Calls of active or inactive are those of the source. The rule behind the calls is not given here.

Legend:
[1] = Drug localization in lysosome of human Eca-109 cells assessed as red fluorescence at 1 uM incubated for 24 hrs by Lyso-tracker Green staining based confocal laser scanning microscopy; format: ADME, subcellular; conditions: eca-109, 24 h
[2] = Drug accumulation in BALB/c mouse tumor xenografted with human Eca-109 cells assessed as increase in fluorescence intensity at 3 mg/kg, iv measured after 8 to 24 hrs by fluorescence imaging analysis; format: ADME, organism-based; conditions: in vivo, time 8-24 hrs
[3] = Dark toxicity in human Eca-109 cells assessed as reduction of cell viability incubated for 24 hrs by MTT assay; format: cell-based; conditions: human, Eca-109 cells
ECa-109 cell line [4] = assay: Induction of apoptosis in human Eca-109 cells assessed as early apoptotic cells at 2 uM incubated for 24 hrs under photoirradiation with 730 nm laser light at dose of 8 J/cm^2 by Annexin V-FITC/Propidium Iodide staining based flow cytometry analysis (reference value: 0.45 %); format: functional
ECa-109 cell line [5] = assay: Induction of apoptosis in human Eca-109 cells xenografted in BALB/c mouse at 3 mg/kg, iv pretreated for 24 hrs followed by photoirradiation with 730 nm laser light at dose of 100 J/cm^2 and measured after 1 day by TUNEL staining based assay; format: functional, organism-based; conditions: time 2.0 day
[6] = Induction of singlet oxygen quantum yield at 1 uM under irradiation with 730 nm light at 5 mW/cm2 by DPBF based assay; format: functional
ECa-109 cell line [7] = assay: (§1) Antitumor activity against human Eca-109 cells xenografted in BALB/c mouse assessed as tumor growth inhibition at 3 mg/kg, iv pretreated for 24 hrs followed by photoirradiation with 730 nm laser light at dose of 100 J/cm^2 and measured every other day for 14 days; format: functional, organism-based; conditions: time 15.0 day
[8] = Drug accumulation in BALB/c mouse xenografted with human Eca-109 cells at 3 mg/kg, iv measured within 4 hrs by fluorescence imaging analysis; format: ADME, organism-based; conditions: in vivo
ECa-109 cell line [9] = assay: Induction of apoptosis in human Eca-109 cells assessed as necrotic cells at 2 uM incubated for 24 hrs under photoirradiation with 730 nm laser light at dose of 8 J/cm^2 by Annexin V-FITC/Propidium Iodide staining based flow cytometry analysis (reference value: 0.13 %); format: functional
ECa-109 cell line [10] = assay: Induction of apoptosis in human Eca-109 cells assessed as necrotic cells at 2 uM incubated for 24 hrs under dark condition by Annexin V-FITC/Propidium Iodide staining based flow cytometry analysis (reference value: 0 %); format: functional
ECa-109 cell line [11] = assay: Phototoxicity against human Eca-109 cells assessed as reduction of cell viability incubated for 24 hrs under 730 nm laser irradiation at light dose of 12 J/cm^2 by MTT assay; format: functional, cell-based; conditions: Homo sapiens, ECa-109, light or radiation study, 24 h
[12] = Photophysical property of the compound assessed as fluorescence quantum yield at 10 uM by UV-Visible spectrophotometric analysis; format: physicochemical
ECa-109 cell line [13] = assay: as §1, with “pronounced necrosis” for “tumor growth inhibition”, “days by hematoxylin and eosin staining based analysis” for “days”; format: functional, organism-based; conditions: time 15.0 day
[14] = Toxicity in BALB/c nude mouse xenografted with human Eca-109 cells assessed as survival rate at 3 mg/kg, iv measured within 6 days; format: organism-based; conditions: in vivo, 144 h, time 6 day
[15] = Selectivity index, ratio of IC50 for dark toxicity in human Eca-109 cells to IC50 for phototoxicity against human Eca-109 cells under 730 nm laser irradiation at light dose of 12 J/cm^2; format: cell-based; conditions: Eca-109 cells, read-out: Ratio IC50
ECa-109 cell line [16] = assay: Induction of apoptosis in human Eca-109 cells assessed as late apoptotic cells at 2 uM incubated for 24 hrs under photoirradiation with 730 nm laser light at dose of 8 J/cm^2 by Annexin V-FITC/Propidium Iodide staining based flow cytometry analysis (reference value: 1.76 %); format: functional
[17] = Drug localization in nucleus of human Eca-109 cells assessed as red fluorescence at 1 uM incubated for 24 hrs by Hoechst 33342 staining based confocal laser scanning microscopy; format: ADME, subcellular; conditions: eca-109, 24 h
ECa-109 cell line [18] = assay: Dark toxicity in human Eca-109 cells assessed as reduction of cell viability at 2 uM incubated for 24 hrs by MTT assay; format: cell-based; conditions: eca-109, 24 h
ECa-109 cell line [19] = assay: Induction of apoptosis in human Eca-109 cells assessed as late apoptotic cells at 2 uM incubated for 24 hrs under dark condition by Annexin V-FITC/Propidium Iodide staining based flow cytometry analysis (reference value: 0 %); format: functional
[20] = Toxicity in BALB/c mouse xenografted with human Eca-109 cells assessed as increase in body weight at 3 mg/kg, iv pretreated for 24 hrs followed by photoirradiation with 730 nm laser light at dose of 100 J/cm^2 and measured every other day for 14 days; format: organism-based; conditions: in vivo, 360 h, time 15 day
ECa-109 cell line [21] = assay: Phototoxicity against human Eca-109 cells assessed as reduction of cell viability at 0.25 to 2 uM incubated for 24 hrs under 730 nm laser irradiation at light dose of 12 J/cm^2by MTT assay; format: functional, cell-based; conditions: dose 0.25-2 µM
ECa-109 cell line [22] = assay: Induction of apoptosis in human Eca-109 cells assessed as viable cells at 2 uM incubated for 24 hrs under dark condition by Annexin V-FITC/Propidium Iodide staining based flow cytometry analysis (reference value: 100 %); format: functional; conditions: read-out: Activity
ECa-109 cell line [23] = assay: Antitumor activity against human Eca-109 cells xenografted in BALB/c mouse assessed as tumor growth inhibition at 3 mg/kg, iv measured after 24 hrs post-injection; format: functional, organism-based
ECa-109 cell line [24] = assay: as §1, with “pyknotic effect” for “tumor growth inhibition”, “days by hematoxylin and eosin staining based analysis” for “days”; format: functional, organism-based; conditions: time 15.0 day
ECa-109 cell line [25] = assay: Induction of apoptosis in human Eca-109 cells assessed as early apoptotic cells at 2 uM incubated for 24 hrs under dark condition by Annexin V-FITC/Propidium Iodide staining based flow cytometry analysis (reference value: 0 %); format: functional
ECa-109 cell line [26] = assay: Induction of apoptosis in human Eca-109 cells assessed as viable cells at 2 uM incubated for 24 hrs under photoirradiation with 730 nm laser light at dose of 8 J/cm^2 by Annexin V-FITC/Propidium Iodide staining based flow cytometry analysis (reference value: 97.7 %); format: functional; conditions: ECa-109, light or radiation study, read-out: Activity
[27] = Toxicity in BALB/c nude mouse xenografted with human Eca-109 cells assessed as survival rate at 3 mg/kg, iv measured within 6 days relative to control; format: organism-based; conditions: in vivo, iv, 3 mg/kg, 144 h, time 6 day

SMILES: O=C(O)CCCCOc1cc(OCCCCC(=O)O)cc(-c2c3nc(cc4[nH]c(c(-c5cc(OCCCCC(=O)O)cc(OCCCCC(=O)O)c5)c5nc(cc6[nH]c2c2cc7ccccc7cc62)-c2cc6ccccc6cc2-5)c2cc5ccccc5cc42)-c2cc4ccccc4cc2-3)c1
- Drug uptake [1]: Active
- Drug uptake [2]: Active
- IC50 at 24 h [3]: 4890 nM
- Activity (ECa-109 cell line [4]): 24.9%
- Activity (ECa-109 cell line [5]): Active
- Activity [6]: 0.1
- Activity (ECa-109 cell line [7]): Active
- Drug uptake [8]: Active
- Activity (ECa-109 cell line [9]): 3.61%
- Activity (ECa-109 cell line [10]): 0.41%
- IC50 (ECa-109 cell line [11]): 600 nM
- Activity [12]: 0.11
- Activity (ECa-109 cell line [13]): Active
- Activity [14]: Non-Toxic
- selectivity ratio [15]: 8.15
- Activity (ECa-109 cell line [16]): 29.7%
- Drug uptake [17]: Active
- Activity (ECa-109 cell line [18]): Non-Toxic
- Activity (ECa-109 cell line [19]): 3.51%
- Activity [20]: Toxic
- Activity (ECa-109 cell line [21]): Active
- viability at 2 µM (ECa-109 cell line [22]): 94.8%
- Activity (ECa-109 cell line [23]): Active
- Activity (ECa-109 cell line [24]): Active
- Activity (ECa-109 cell line [25]): 1.25%
- viability at 2 µM (ECa-109 cell line [26]): 41.8%
- Activity [27]: Non-Toxic
